The source made the active and inactive calls.
How the values were obtained:
Cytochrome P450 1A2 = molecular target: T1, Cytochrome P450 1A2 (Homo sapiens, UniProt P05177);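 further: PubChem cytochrome P450 panel assay, CYP1A2 panel member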
T1 sequence (P05177 whole entry): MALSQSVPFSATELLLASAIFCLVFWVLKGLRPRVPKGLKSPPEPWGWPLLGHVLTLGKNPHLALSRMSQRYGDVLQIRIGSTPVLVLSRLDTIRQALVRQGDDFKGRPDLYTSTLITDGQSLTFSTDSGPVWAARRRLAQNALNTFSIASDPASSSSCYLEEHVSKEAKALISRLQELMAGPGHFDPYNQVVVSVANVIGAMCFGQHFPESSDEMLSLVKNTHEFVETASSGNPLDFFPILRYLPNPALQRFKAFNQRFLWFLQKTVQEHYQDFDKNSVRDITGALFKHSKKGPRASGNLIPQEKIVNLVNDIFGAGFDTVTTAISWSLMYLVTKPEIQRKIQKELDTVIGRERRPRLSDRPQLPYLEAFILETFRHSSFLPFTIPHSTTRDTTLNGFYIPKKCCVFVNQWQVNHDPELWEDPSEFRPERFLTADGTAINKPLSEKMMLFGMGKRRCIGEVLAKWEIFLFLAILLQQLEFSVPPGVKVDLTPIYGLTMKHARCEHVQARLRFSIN

Cytochrome P450 2C9 = Cytochrome P450 2C9 (Homo sapiens, UniProt P11712)
Cytochrome P450 2C19 = Cytochrome P450 2C19 (Homo sapiens, UniProt P33261); assay: Cytochrome panel assay with activity outcomes. Panel member name: p450-cyp2c19 Compounds with AC50 equal or less than 10 uM are considered active; assay type: functional
Protein RecA = molecular target: T2, Protein RecA (Mycobacterium tuberculosis, UniProt P9WHJ3); assay: Fluorescence Cell-Free Homogeneous Dose Retest to Identify Inhibitors of RecA-Intein Splicing Activity. [Related pubchem assays (depositor defined):AID2097, AID2223, AID489010, AID492950]; assay type: functional
T2 sequence (P9WHJ3 whole entry): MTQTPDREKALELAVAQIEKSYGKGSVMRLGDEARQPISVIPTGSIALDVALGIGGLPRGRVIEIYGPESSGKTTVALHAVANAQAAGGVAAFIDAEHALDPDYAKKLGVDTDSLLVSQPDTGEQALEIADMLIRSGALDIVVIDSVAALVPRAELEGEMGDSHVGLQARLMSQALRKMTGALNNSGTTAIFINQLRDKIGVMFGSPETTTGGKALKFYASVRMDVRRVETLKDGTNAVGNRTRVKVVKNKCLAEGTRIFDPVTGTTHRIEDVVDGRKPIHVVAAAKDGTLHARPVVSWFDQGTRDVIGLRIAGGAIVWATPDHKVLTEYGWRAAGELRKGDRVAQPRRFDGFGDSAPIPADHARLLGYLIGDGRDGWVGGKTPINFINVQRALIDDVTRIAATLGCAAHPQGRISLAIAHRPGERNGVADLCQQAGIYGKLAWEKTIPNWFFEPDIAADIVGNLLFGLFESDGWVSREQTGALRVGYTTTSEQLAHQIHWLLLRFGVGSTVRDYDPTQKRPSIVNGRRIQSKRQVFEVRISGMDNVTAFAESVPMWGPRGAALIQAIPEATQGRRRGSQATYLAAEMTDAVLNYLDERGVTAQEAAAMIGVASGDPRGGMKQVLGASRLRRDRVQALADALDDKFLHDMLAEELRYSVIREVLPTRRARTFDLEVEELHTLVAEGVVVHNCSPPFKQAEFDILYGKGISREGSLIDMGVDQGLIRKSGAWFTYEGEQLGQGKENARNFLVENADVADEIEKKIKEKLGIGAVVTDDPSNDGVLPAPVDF

[1] = viability of uninfected HEp-2 cells – cell-based, HTS, cytotoxicity control for RSV inhibitor project, dose response (AID 2410); assay type: functional; conditions: human respiratory syncytial virus
[2] = molecular target: T3, Replicative DNA helicase DnaB (Mycobacterium tuberculosis, UniProt P9WMR3); assay: DnaB intein splicing inhibitors, dose response, biochemical, cell-free fluorescence (AID 449749); assay type: functional
T3 sequence (P9WMR3 whole entry): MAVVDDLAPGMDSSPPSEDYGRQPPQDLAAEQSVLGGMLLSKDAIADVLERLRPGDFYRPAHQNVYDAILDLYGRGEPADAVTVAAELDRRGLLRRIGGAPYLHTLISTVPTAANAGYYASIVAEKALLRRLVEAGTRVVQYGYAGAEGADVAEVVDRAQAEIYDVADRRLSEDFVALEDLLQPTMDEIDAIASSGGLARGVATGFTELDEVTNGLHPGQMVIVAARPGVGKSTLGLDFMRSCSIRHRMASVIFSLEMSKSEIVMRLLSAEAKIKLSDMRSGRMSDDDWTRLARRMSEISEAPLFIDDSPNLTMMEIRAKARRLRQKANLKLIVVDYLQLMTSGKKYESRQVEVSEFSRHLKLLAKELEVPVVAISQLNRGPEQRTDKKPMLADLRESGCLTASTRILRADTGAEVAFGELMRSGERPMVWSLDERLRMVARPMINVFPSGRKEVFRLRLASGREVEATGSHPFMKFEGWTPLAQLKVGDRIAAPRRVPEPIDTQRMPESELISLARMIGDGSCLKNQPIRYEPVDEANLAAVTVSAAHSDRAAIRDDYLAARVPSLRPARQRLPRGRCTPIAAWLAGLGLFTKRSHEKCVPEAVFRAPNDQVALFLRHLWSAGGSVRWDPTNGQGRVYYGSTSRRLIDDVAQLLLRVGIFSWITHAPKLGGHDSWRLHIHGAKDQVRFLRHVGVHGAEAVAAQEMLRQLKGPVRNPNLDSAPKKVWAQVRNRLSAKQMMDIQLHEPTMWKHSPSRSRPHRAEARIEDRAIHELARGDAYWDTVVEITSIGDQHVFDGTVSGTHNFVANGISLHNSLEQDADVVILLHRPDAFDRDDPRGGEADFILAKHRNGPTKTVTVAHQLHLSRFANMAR

[3] = Luminescence Cell-Based Dose Response HTS to Identify Inhibitors of 5'UTR Stem-Loop Driven Prion Protein mRNA Translation in H4 Neuroglioblastoma Cells. [Related pubchem assays: 1827 (Project Summary), 1813 (Primary HTS)]; assay type: functional
[4] = luciferase reporter signal suppression in cells – H4 neuroglioma cells, luminescence, dose response (AID 1990); assay type: functional, cell-based
[5] = alpha-synuclein stem-loop luciferase translation blockers – H4 neuroglioma cells, luminescence, confirmation (AID 1988); assay type: functional, cell-based
Streptokinase A = molecular target: T4, Streptokinase A (Streptococcus pyogenes serotype M1, UniProt P10520); assay: viability-normalized secreted streptokinase activity reduction – plasminogen activation absorbance, OD405, dose response (AID 1914); assay type: functional, Streptococcus pyogenes M1 GAS;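 further: secreted streptokinase activity via plasminogen activation per viability signal from cell pellet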
T4 sequence (P10520 whole entry): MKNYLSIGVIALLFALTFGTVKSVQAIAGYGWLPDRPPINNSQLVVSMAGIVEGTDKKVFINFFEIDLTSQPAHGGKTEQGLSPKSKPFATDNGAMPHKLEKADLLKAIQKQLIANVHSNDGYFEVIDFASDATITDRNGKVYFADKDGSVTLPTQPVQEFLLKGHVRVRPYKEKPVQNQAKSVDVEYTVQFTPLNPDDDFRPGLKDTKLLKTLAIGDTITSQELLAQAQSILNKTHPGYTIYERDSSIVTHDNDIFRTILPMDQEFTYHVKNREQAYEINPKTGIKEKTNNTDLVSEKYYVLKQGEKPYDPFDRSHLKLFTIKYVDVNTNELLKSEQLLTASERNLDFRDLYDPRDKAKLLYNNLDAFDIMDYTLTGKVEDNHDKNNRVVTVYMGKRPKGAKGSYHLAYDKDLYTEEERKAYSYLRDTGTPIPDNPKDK

Streptococcus = assay: GAS UMAA2166 growth inhibition – luminescence, BacTiterGlo, counter-screen for streptokinase expression inhibitor project, dose response (AID 1915); assay type: functional, organism-based;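 further: potency for reduction of bacterial viability or growth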

Cytochrome P450 2C19, sequence (P33261 whole entry): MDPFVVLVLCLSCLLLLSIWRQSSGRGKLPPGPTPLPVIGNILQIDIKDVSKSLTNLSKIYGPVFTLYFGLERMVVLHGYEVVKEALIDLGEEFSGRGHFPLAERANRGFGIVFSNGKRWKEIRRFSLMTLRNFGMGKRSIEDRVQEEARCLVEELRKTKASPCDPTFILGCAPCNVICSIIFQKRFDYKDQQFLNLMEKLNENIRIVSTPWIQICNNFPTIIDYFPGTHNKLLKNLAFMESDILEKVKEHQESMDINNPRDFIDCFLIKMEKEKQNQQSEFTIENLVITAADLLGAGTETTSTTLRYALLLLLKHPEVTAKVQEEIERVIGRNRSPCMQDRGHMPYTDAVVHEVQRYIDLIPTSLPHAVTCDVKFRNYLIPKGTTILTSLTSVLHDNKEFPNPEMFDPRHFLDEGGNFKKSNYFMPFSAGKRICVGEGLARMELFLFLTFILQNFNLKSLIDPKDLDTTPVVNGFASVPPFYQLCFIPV
Cytochrome P450 2C9, sequence (P11712 whole entry): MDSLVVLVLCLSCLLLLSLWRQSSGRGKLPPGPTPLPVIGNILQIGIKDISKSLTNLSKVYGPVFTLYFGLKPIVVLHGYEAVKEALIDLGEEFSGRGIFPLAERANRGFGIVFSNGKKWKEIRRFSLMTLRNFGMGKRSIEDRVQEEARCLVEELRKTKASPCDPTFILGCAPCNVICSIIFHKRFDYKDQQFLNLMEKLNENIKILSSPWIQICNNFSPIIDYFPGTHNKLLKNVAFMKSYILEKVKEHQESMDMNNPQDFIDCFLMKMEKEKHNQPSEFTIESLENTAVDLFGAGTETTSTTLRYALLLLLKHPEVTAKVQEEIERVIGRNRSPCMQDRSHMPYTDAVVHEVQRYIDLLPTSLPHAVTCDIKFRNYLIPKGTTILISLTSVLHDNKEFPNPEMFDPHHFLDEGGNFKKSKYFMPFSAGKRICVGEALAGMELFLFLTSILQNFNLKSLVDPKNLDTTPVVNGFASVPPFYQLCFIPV

Cc1noc(C)c1C(=O)N1CCC[C@@]2(CCN(c3ccccc3)C2)C1
AC50 (Cytochrome P450 1A2): 25.1 µM (inconclusive)
AC50 (Cytochrome P450 2C9): 20 µM (inconclusive)
AC50 (Cytochrome P450 2C19): 25.1 µM (inconclusive)

COc1cc2c(cc1OC)C1(Nc3c-2c(Cc2ccccc2)nn3-c2ccccc2)C(=O)Nc2ccccc21 (stereo unspecified)
EC50 (Protein RecA): > 380 µM (inactive)
CC50 [1]: > 50 µM (active)
AC50 [2]: > 380 µM (inactive)

Cc1ccc2nc(-c3ccc(NC(=O)COC(=O)c4ccc([N+](=O)[O-])o4)cc3)sc2c1
EC50 [3]: 10.9 µM (inconclusive)

Cc1nc2c(c(N3CCOCC3)n1)OCC(=O)N2
EC50 [4]: 42.6 µM (active)
EC50 [3]: > 120 µM (not active)
EC50 [5]: 20.7 µM (active)

COc1ccc(N=C(S)NC(NC(=O)CCl)C(Cl)(Cl)Cl)c([N+](=O)[O-])c1 (stereo unspecified)
EC50 (Protein RecA): 3.31 µM (active)
AC50 [2]: 28.5 µM (active)

NNc1nnc(S)n1N
EC50 (Protein RecA): 86.4 µM (active)
AC50 [2]: > 380 µM (inactive)

COc1ccc2c(C)cc(N3CCOCC3)nc2c1
AC50 (Cytochrome P450 2C19): 31.6 µM (inconclusive)

CN(C)S(=O)(=O)c1ccc(Cl)c(-c2nnc3n2CCCCC3)c1
EC50 [4]: > 120 µM (not active)
EC50 [3]: > 120 µM (not active)
EC50 [5]: > 120 µM (not active)

O=C(COC(=O)COc1ccccc1)Nc1ccc(OC(F)(F)F)cc1
AC50 (Cytochrome P450 2C19): 39.8 µM (inconclusive)

COc1ccc(NC(=O)C(F)(F)F)cc1OC
AC50 (Cytochrome P450 2C9): 39.8 µM (inconclusive)
AC50 (Cytochrome P450 2C19): 22.4 µM (inconclusive)

CCCOc1ccc(Cc2c(Cl)nc(SC)nc2OC)cc1
EC50 (Streptokinase A): 57.2 µM (active)
EC50 (Streptococcus): > 150 µM (not active)

Nc1c(C(=O)NCc2ccc3c(c2)OCO3)nnn1CC(=O)Nc1ccc(Br)cc1
EC50 [4]: > 120 µM (not active)
EC50 [3]: > 120 µM (not active)
EC50 [5]: 18.3 µM (active)

Cc1nn(-c2ccccc2)c2c1C1(C(=O)N(C(C)C)c3ccccc31)C(C#N)=C(N)O2 (stereo unspecified)
EC50 (Protein RecA): 2.88 µM (active)
AC50 [2]: 4.5 µM (active)

CC(/C=C1\SC(=S)N(NC(=O)c2cccc(O)c2)C1=O)=C\c1ccccc1
EC50 (Protein RecA): 25.2 µM (active)
AC50 [2]: 15 µM (active)

CCCNC(=O)Nc1ccc2c(c1)nc(C)n2C
AC50 (Cytochrome P450 1A2): 15.8 µM (inconclusive)
AC50 (Cytochrome P450 2C19): 0.562 µM (inconclusive)

COC(=O)c1sc(-c2cccs2)cc1NC(=O)/C=C/C(=O)O
EC50 (Protein RecA): 15.2 µM (active)
AC50 [2]: 82.9 µM (active)

Cc1ccc(S(=O)(=O)N[C@@H](CCCCN)C(=O)CCl)cc1
EC50 (Protein RecA): 12.6 µM (active)
AC50 [2]: > 120 µM (inactive)
